Ten compounds from patent publication US20230339970A1, “CASEIN KINASE 1 DELTA MODULATORS” (priority 2020, published 2023) can be followed below.

In assay [1] the target is T1, human recombinant GST cleaved CSNK1D (Homo sapiens, UniProt P48730).
T1 construct: GST (cleaved yes); purchased University of Dundee clone DU 19064
As to the kind of experiment: Purified Enzyme Assay (ADP-Glo CSNK1D Kinase Assay). The assay is classed as biochemical. Conditions: 2 nM CSNK1D; peptide substrate 150 μM; ATP 20 μM; 45 minutes at room temperature. A digest of the protocol:
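GST-cleaved human recombinant CSNK1D phosphorylates peptide PLSRTL-pS-VASLPGL with ATP; compounds added in dose-response, 45 min at room temperature. ADP formed measured by ADP-Glo luminescence and converted to percent activity.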
(In ADP-Glo the light output rises with the ADP produced.)

The target of assay [2] is T2, human CSNK1D (Homo sapiens, UniProt P48730).
T2 construct: expressed in transfected cells
As to the kind of experiment: Whole Cell nBRET CSNK1D Binding Assay. Conditions: living CHO cells stably expressing human CSNK1D tagged with nanoluciferase; NanoBret tracer 130 nM; 2 hours at 37 C.

T2 sequence (P48730 whole entry): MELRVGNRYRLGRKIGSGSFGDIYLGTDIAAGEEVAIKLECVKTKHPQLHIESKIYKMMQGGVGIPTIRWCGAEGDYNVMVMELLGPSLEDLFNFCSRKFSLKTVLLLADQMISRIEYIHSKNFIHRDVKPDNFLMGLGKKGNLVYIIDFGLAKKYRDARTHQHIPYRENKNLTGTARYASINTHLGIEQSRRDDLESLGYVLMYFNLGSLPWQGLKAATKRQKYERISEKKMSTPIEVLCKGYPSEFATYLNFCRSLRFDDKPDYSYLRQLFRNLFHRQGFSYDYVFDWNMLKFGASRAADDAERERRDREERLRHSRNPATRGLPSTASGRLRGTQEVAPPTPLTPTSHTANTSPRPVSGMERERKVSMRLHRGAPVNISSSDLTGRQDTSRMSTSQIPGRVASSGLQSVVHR
T1 sequence (P48730 whole entry): as above

As a reminder, the IC50 is the midpoint of a concentration-inhibition curve. Consider `C[C@@H]1[C@@H](C)OCc2c(-c3ccnc4[nH]ncc34)c(-c3ccc(F)cc3)nn21` (relative stereo) [Example 114, (6*R,7*R)-2-(4-Fluorophenyl)-6,7-dimethyl-3-(1H-pyrazolo[3,4-b]pyridin-4-yl)-6,7-dihydro-4H-pyrazolo[5,1-c][1,4]oxazine], for which the IC50 in assay [1] was determined as 6 nM; in assay [2] it was 55 nM.

Take `Cc1nc2[nH]ncc2c(-c2c(-c3ccc(F)cn3)nn3c2CC[C@@H]2C[C@@H]23)c1F` (single isomer, unassigned) [Example 344, (5a*R,6a*S)-3-(5-Fluoro-6-methyl-1H-pyrazolo[3,4-b]pyridin-4-yl)-2-(5-fluoropyridin-2-yl)-5,5a,6,6a-tetrahydro-4H-cyclopropa[e]pyrazolo[1,5-a]pyridine]: the 50% inhibitory concentration (IC50) was 4 nM in assay [1] and 44 nM in assay [2].

As to `Cc1cc(-c2c(-c3cncc(F)c3)nn3c2COCC3)c2cn[nH]c2n1` [Example 77, 2-(5-Fluoro-3-pyridyl)-3-(6-methyl-1H-pyrazolo[3,4-b]pyridin-4-yl)-6,7-dihydro-4H-pyrazolo[5,1-c][1,4]oxazine], the figures for the half-maximal inhibitory concentration (IC50) in assay [1] and in assay [2] were 116 nM and 2320 nM, respectively.

Regarding `Fc1ccc(-c2nn3c(c2-c2ccnc4[nH]ncc24)[C@H]2CC[C@@H]3C2)nc1` (single isomer, unassigned) [Example 63, (4*S,7*R)-2-(5-Fluoropyridin-2-yl)-3-(1H-pyrazolo[3,4-b]pyridin-4-yl)-4,5,6,7-tetrahydro-4,7-methanopyrazolo[1,5-a]pyridine], the IC50 in assay [1] turned out to be 12 nM; in assay [2], 320 nM.

As for `Cc1cc(-c2c(-c3ccc(F)cn3)nn3c2CCC2CC23)c2cn[nH]c2n1` (racemic) [Example 57, (Racemic) 2-(5-Fluoropyridin-2-yl)-3-(6-methyl-1H-pyrazolo[3,4-b]pyridin-4-yl)-5,5a,6,6a-tetrahydro-4H-cyclopropa[e]pyrazolo[1,5-a]pyridine], the IC50 in assay [1] came out at 6 nM; in assay [2], 57 nM.

Take `CCC(=O)Nc1cc(-c2c(-c3ccc(F)cn3)nn3c2OCC(C)(C)C3)ccn1` [Example 447, N-(4-(2-(5-Fluoropyridin-2-yl)-6,6-dimethyl-6,7-dihydro-5H-pyrazolo[5,1-b][1,3]oxazin-3-yl)pyridin-2-yl)propionamide]: the IC50 is 2 nM in assay [1] and 5 nM in assay [2].

In the case of `CC1(C)Cn2nc(-c3ncc(F)cc3F)c(-c3ccnc4[nH]ncc34)c2CO1` [Example 166, 2-(3,5-Difluoropyridin-2-yl)-6,6-dimethyl-3-(1H-pyrazolo[3,4-b]pyridin-4-yl)-6,7-dihydro-4H-pyrazolo[5,1-c][1,4]oxazine], the IC50 stood at 7 nM in assay [1] and 102 nM in assay [2].

With `CC1(C)COc2c(-c3ccnc4cc[nH]c34)c(-c3ccc(F)cn3)nn2C1` [Example 450, 2-(5-Fluoro-2-pyridyl)-6,6-dimethyl-3-(1H-pyrrolo[3,2-b]pyridin-7-yl)-5,7-dihydropyrazolo[5,1-b][1,3]oxazine], the half-maximal inhibitory concentration (IC50) worked out at 75 nM in assay [1] and 1050 nM in assay [2].

As for `CC1(C)CCc2c(-c3c(F)cnc4[nH]ncc34)c(-c3ccc(F)cn3)nn2C1` [Example 282, 5-Fluoro-4-[2-(5-fluoro-2-pyridyl)-6,6-dimethyl-5,7-dihydro-4H-pyrazolo[1,5-a]pyridin-3-yl]-1H-pyrazolo[3,4-b]pyridine], the results for the IC50 in assay [1] and in assay [2] were 9 nM and 48 nM, respectively.

As to `Cc1nc2[nH]ncc2c(-c2c(-c3ccc(F)cn3)nn3c2CCC3)c1F` [Example 9, 5-Fluoro-4-(2-(5-fluoropyridin-2-yl)-5,6-dihydro-4H-pyrrolo[1,2-b]pyrazol-3-yl)-6-methyl-1H-pyrazolo[3,4-b]pyridine], the figures for the IC50 in assay [1] and in assay [2] were 12 nM and 60 nM, respectively.
